Data taken from ChEMBL document CHEMBL1201862, “PubChem BioAssay data set” (2004).
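48-hour exposure; five concentrations; linearly interpolated endpoints. GI50 = concentration required for 50% inhibition of growth.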 Activity calls are given as the source filed them. Cut-off read from the data, not from the text of the source: active = GI50 up to about 1.1 µM and inactive = higher.

Legend:
Assay in all cases: NCI anticancer screen, dose series, 48 h
[1] = system: NCI-H23
[2] = system: KM12
[3] = system: SF-295
[4] = system: ACHN
[5] = system: 786-0
[6] = system: OVCAR-8
[7] = system: Hs-578T
[8] = system: K562
[9] = system: NCI/ADR-RES
[10] = system: Malme-3M
[11] = system: SF-268
[12] = system: MDA-N
[13] = system: CCRF-CEM
[14] = system: NCI-H460
[15] = system: SK-MEL-5
[16] = system: HOP-92
[17] = system: IGROV-1
[18] = system: HT-29
[19] = system: A498
[20] = system: SK-MEL-2

Measured: GI50

O=[N+]([O-])c1ccc(N2N=C(c3ccc4ccccc4c3O)CC2c2ccc(Cl)cc2)c([N+](=O)[O-])c1 (stereo not given)
inactive: [1] > 100 µM | [2] 21.8 µM | [3] 34.7 µM | [4] 37.2 µM | [5] 44 µM | [6] 37.3 µM | [7] 37.9 µM | [8] 14.5 µM | [9] 30.6 µM | [10] 21.5 µM | [11] 45.7 µM | [12] 16.7 µM | [13] 14.2 µM | [14] 25.4 µM | [15] 22.2 µM | [16] 33 µM | [17] 21.5 µM | [18] 33 µM | [19] 27.2 µM | [20] 33.6 µM

COc1cc2oc(-c3ccc4c(c3)OCO4)c(OC)c(=O)c2c(OC)c1OC
inactive: [1] 39.4 µM | [2] > 100 µM | [3] > 100 µM | [4] 59.4 µM | [5] 94 µM | [6] 53.3 µM | [7] 52.2 µM | [8] > 100 µM | [9] > 100 µM | [10] > 100 µM | [11] 27.9 µM | [12] > 100 µM | [13] > 100 µM | [14] > 100 µM | [15] 51.5 µM | [16] 1.35 µM | [17] 67.9 µM | [18] > 100 µM | [19] 33.7 µM | [20] > 100 µM

CC(C)N1CN(c2ccccc2)C2(CCN(CCCC(=O)c3ccc(F)cc3)CC2)C1=O
inactive: [1] 6.7 µM | [2] 22 µM | [3] 10.8 µM | [4] 3.9 µM | [5] 6.9 µM | [6] 24 µM | [7] 16.1 µM | [8] 25.6 µM | [9] 5.55 µM | [10] 14.7 µM | [11] 6.7 µM | [12] 14.9 µM | [13] 1.83 µM | [14] 21.1 µM | [15] 2.55 µM | [16] 3.78 µM | [17] 3.85 µM | [18] 1.79 µM | [19] 2.97 µM | [20] 14 µM
